Consider eight compounds from US20250235460A1, “COMBINATION THERAPY USING GLUCOSE-DEPENDENT INSULINOTROPIC POLYPEPTIDE RECEPTOR ANTAGONIST COMPOUNDS AND GLP-1 RECEPTOR AGONIST COMPOUNDS” (Pfizer Inc., priority 2024, published 2025).

For assay [1], the target named is human GLP-1R (Homo sapiens, UniProt P43220, G168S). Nature of the assay: CHO GLP-1R Clone H6 cAMP HTRF agonist assay (Assay 1, high receptor density). The assay is classed as cell-based. Conditions: for EC50: CHO GLP-1R clone H6, cAMP HTRF, geometric mean; for Emax: CHO GLP-1R clone H6, arithmetic mean, relative to saturating GLP-1 (1 μM), read-out: Assay 1 Emax (%). The procedure, abridged:
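From replicate determinations, mean EC50 (geometric) and mean Emax (arithmetic) were derived and expressed to two significant figures.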

Assay [2] concerns the target human GLP-1R (Homo sapiens, UniProt P43220, L260F). Nature of the assay: CHO GLP-1R Clone C6 cAMP HTRF agonist assay (Assay 2, low receptor density). Format: cell-based. The settings on record: for EC50: CHO GLP-1R clone C6, cAMP HTRF, geometric mean; for Emax: CHO GLP-1R clone C6, arithmetic mean, relative to saturating GLP-1 (1 μM). An excerpt: In Table 5 and Table 6, assay data are presented to two (2) significant figures as the geometric mean (EC50s) and arithmetic mean (Emax) based on the number of replicates listed (Number). A blank cell means there was no data for that Example or the Emax was not calculated.

Sequence of human GLP-1R (Homo sapiens, UniProt P43220, L260F) (P43220 24-463 L260F): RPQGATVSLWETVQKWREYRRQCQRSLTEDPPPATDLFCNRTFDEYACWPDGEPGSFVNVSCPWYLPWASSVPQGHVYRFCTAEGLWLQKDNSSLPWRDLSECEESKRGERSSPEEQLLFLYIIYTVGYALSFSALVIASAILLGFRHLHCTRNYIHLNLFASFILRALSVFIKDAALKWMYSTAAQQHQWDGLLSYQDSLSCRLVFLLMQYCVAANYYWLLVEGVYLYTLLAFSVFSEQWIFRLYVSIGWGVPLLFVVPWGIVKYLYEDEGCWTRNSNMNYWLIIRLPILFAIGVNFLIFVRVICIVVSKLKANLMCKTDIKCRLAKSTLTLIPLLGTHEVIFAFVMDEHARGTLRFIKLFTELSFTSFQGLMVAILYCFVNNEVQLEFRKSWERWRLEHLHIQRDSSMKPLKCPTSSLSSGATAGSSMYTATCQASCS
Sequence of human GLP-1R (Homo sapiens, UniProt P43220, G168S) (P43220 24-463 G168S): as the sequence (P43220 24-463 L260F) above, with G145S, F237L counted along it

Turning to `O=C(O)c1ccc2nc(CN3CCC(c4cccc(OCc5ccc(F)cc5F)n4)CC3)n(C[C@@H]3CCO3)c2c1` [Compound 117B, 2-[(4-{6-[(2,4-difluorobenzyl)oxy]pyridin-2-yl}piperidin-1-yl)methyl]-1-[(2S)-oxetan-2-ylmethyl]-1H-benzimidazole-6-carboxylic acid], the 50% effective concentration (EC50) at human GLP-1R [1] was found to be 19 nM; on human GLP-1R [2] it was 530 nM. Further, the maximum response (Emax) on human GLP-1R [1] amounted to 76%; at human GLP-1R [2] it was 97%.

On to `CC(C)(C)n1cnnc1Cn1c(CN2CCC(c3cccc(OCc4ccc(Cl)cc4F)n3)CC2)nc2ccc(C(=O)O)cc21` [Compound 259B, 1-[(4-tert-butyl-4H-1,2,4-triazol-3-yl)methyl]-2-[(4-{6-[(4-chloro-2-fluorobenzyl)oxy]pyridin-2-yl}piperidin-1-yl)methyl]-1H-benzimidazole-6-carboxylic acid], for which, at human GLP-1R [1], the EC50 was found to be 0.95 nM and the Emax came out at 95%. Also, at human GLP-1R [2], the EC50 is 13 nM and the maximal effect (Emax) is 91%.

`O=C(O)c1ccc2nc(CN3CCC(c4cccc(OCc5ccc(F)cc5F)n4)CC3)n(Cc3ncco3)c2c1` [Compound 149B, 2-[(4-{6-[(2,4-difluorobenzyl)oxy]pyridin-2-yl}piperidin-1-yl)methyl]-1-(1,3-oxazol-2-ylmethyl)-1H-benzimidazole-6-carboxylic acid]: on human GLP-1R [1], the concentration for a half-maximal effect (EC50) worked out at 770 nM and the Emax was found to be 78%. Further, at human GLP-1R [2], the EC50 is over 15000 nM and the Emax came to 100%.

As to `N#Cc1ccc(COc2cccc(N3CCN(Cc4nc5ccc(C(=O)O)cc5n4C[C@@H]4CCO4)CC3)n2)c(F)c1` [Compound 108B, 2-[(4-{6-[(4-cyano-2-fluorobenzyl)oxy]pyridin-2-yl}piperazin-1-yl)methyl]-1-[(2S)-oxetan-2-ylmethyl]-1H-benzimidazole-6-carboxylic acid], the results for the 50% effective concentration (EC50) on human GLP-1R [1] and on human GLP-1R [2] were 16 nM and 320 nM, respectively. The maximal effect (Emax) at human GLP-1R [1] was found to be 85%; on human GLP-1R [2] it was 88%.

With `Cn1cncc1Cn1c(CN2CCN(c3cccc(OCc4ccc(Cl)cc4F)n3)CC2)nc2ccc(C(=O)O)cc21` [Compound 153B, 2-[(4-{6-[(4-chloro-2-fluorobenzyl)oxy]pyridin-2-yl}piperazin-1-yl)methyl]-1-[(1-methyl-1H-imidazol-5-yl)methyl]-1H-benzimidazole-6-carboxylic acid], the EC50 at human GLP-1R [1] was 24 nM; on human GLP-1R [2] it was 1200 nM. Also, the Emax amounted to 76% at human GLP-1R [1] and 94% at human GLP-1R [2].

`CC1CN(c2cccc(OCc3ccc(Cl)cc3F)n2)CCN1Cc1nc2ccc(C(=O)O)cc2n1Cc1cocn1` (stereo in doubt) [Compound 240B, 2-{[(2S)-4-{6-[(4-chloro-2-fluorobenzyl)oxy]pyridin-2-yl}-2-methylpiperazin-1-yl]methyl}-1-(1,3-oxazol-4-ylmethyl)-1H-benzimidazole-6-carboxylic acid]: the concentration giving a half-maximal response (EC50) is 0.5 nM at human GLP-1R [1] and 16 nM at human GLP-1R [2]. Besides, the figures for the Emax at human GLP-1R [1] and at human GLP-1R [2] were 78% and 86%, respectively.

Take `Cc1ccn(CCn2c(CN3CCC(c4cccc(OCc5ccc(Cl)cc5F)n4)CC3)nc3ccc(C(=O)O)cc32)n1` [Compound 306B, 2-[(4-{6-[(4-chloro-2-fluorobenzyl)oxy]pyridin-2-yl}piperidin-1-yl)methyl]-1-[2-(3-methyl-1H-pyrazol-1-yl)ethyl]-1H-benzimidazole-6-carboxylic acid]: the half-maximal effective concentration (EC50) at human GLP-1R [1] stood at 190 nM; at human GLP-1R [2], 3600 nM. Moreover, the maximal effect (Emax) was determined as 80% at human GLP-1R [1] and 93% on human GLP-1R [2].

`COCCN1CCC(Cn2c(CN3CCC(c4cccc(OCc5ccc(Cl)cc5F)n4)CC3)nc3ccc(C(=O)O)cc32)CC1` [Compound 287B, 2-[(4-{6-[(4-chloro-2-fluorobenzyl)oxy]pyridin-2-yl}piperidin-1-yl)methyl]-1-{[1-(2-methoxyethyl)piperidin-4-yl]methyl}-1H-benzimidazole-6-carboxylic acid]: the half-maximal effective concentration (EC50) at human GLP-1R [1] was 28 nM; on human GLP-1R [2], 450 nM. Further, the maximum response (Emax) stood at 80% on human GLP-1R [1] and 89% at human GLP-1R [2].
